Drawing on US20240108745A1, “BIOACTIVE SUBSTANCE CONJUGATE, PREPARATION METHOD THEREFOR AND USE THEREOF” (MEDILINK THERAPEUTICS (SUZHOU) CO., LTD., priority 2021, published 2024), this text covers EC50 for 1 molecule.

Holding throughout (assay): Assay II of bioactive molecules on cell viability in vitro (CCK8)
What all share (type): cell-based

The subject of experiment [1] is NCI-H358. The following applies: Homo sapiens, CCK8, 3-4 days. As for the experimental part:
(§1) Tumor cells NUCG-4, PC-9, HT29, NCI-H358, KYSE520, A431 and A549 were first cultured; the bioactive molecules or fragments of the present disclosure were co-cultured with tumor cells, and then CCK8 reagent (Dojindo Laboratories (Shanghai), Cat: CK04, Lot: JJ744) was added, and the activity of dehydrogenase in mitochondria was detected by reading (detection wavelength 450 nm) on a microplate reader (manufacturer: Molecular Devices, model: SpectraMax M2), to evaluate the inhibitory effect of bioactive molecules on cell proliferation.
(§2) In vitro cell viability assay method: the tumor cells were digested by conventional methods using trypsin, and cells in tube were collected and counted, and then resuspended in the corresponding assay media (containing 2% FBS), which was added to a 96-well plate at 5000-10000 cells/well. Bioactive molecules were diluted with DMSO, and then 100 μL was added to a 96-well plate, the initial concentration was 10 μM, followed by 3-fold serial dilution (12 concentration gradients). The plate was incubated for 3-4 days at 37° C. under 5% CO2. Then, 20 μL of CCK8 reagent was added to each well, and the reaction was carried out for 2-6 h. The plate was read on a microplate reader (detection wavelength was 450 nm).

The test system of experiment [2] is A549. The following applies: Homo sapiens, CCK8, 3-4 days. The procedure:
as §1, §2

The test system of experiment [3] is NUCG-4. The following applies: CCK8, 3-4 days. As for the experimental part:
as §1, §2

The test system of experiment [4] is PC-9. The conditions noted are these: Homo sapiens, CCK8, 3-4 days. The procedure:
as §1, §2

The subject of experiment [5] is A431. The conditions noted are these: Homo sapiens, A-431; CCK8, 3-4 days. The procedure: as §1, §2
Experiment [6] concerns KYSE520. The following applies: Homo sapiens, KYSE-520; CCK8, 3-4 days. The procedure: as §1, §2
Experiment [7] relates to HT29. The following applies: Homo sapiens, HT-29; CCK8, 3-4 days. As for the experimental part: as §1, §2

pEC50: −log10 of the molar value.

For the molecule `CC[C@@]1(O)C(=O)OCc2c1cc1n(c2=O)Cc2c-1nc1cc3c(cc1c2CCCO)OCO3` [Example A1.9, (S)-7-ethyl-7-hydroxy-14-(3-hydroxypropyl)-10,13-dihydro-11H-[1,3]dioxolo[4,5-g]pyrano[3′,4′:6,7]indolizino[1,2-b]quinolin-8,11(7H)-dione], the EC50 (as a rule, the midpoint of the concentration-response curve) in experiment [1] was 46.2 nM; in experiment [2] it was 65.9 nM; in experiment [3], 8.73 nM; in experiment [4], 2.06 nM; in experiment [5], 5.71 nM; in experiment [7], 20.3 nM. Further, in experiment [6], the pEC50 – broadly, −log10 of the EC50, conventionally taken in molar units – is 7.30.
